What is called DC50 is the midpoint of the concentration-degradation curve. Higher therefore signals a less potent degrader.

The target of the test is T1, IRAK4 (Homo sapiens, UniProt Q9NWZ3).
T1 construct: expressed in transfected cells; host or cells: THP1 (THP1-HIBiT-IRAK4 engineered line)
T1 sequence (Q9NWZ3 1-460): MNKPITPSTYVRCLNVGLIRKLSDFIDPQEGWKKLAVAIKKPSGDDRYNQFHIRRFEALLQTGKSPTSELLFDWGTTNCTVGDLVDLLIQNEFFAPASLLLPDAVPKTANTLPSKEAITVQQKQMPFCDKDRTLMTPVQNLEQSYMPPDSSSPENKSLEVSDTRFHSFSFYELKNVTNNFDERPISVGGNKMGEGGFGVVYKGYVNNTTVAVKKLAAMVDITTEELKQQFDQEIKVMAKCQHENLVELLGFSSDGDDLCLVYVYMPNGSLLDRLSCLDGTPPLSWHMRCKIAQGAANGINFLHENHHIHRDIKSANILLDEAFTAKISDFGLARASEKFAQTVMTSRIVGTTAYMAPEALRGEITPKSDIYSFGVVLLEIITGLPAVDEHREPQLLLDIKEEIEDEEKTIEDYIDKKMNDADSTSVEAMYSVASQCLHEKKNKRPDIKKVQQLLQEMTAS
The test can be described thus: HiBiT-based intracellular degradation assay of THP1-HIBiT-IRAK4 cells. The note with it: half-maximal degradation concentration of IRAK4 protein, 24 h incubation. The class given is cell-based. As to the method:
HiBiT-based intracellular degradation assay of THP1-HIBiT-IRAK4 cells
THP1-HIBiT-IRAK4 cells were cultured in RPMI 1640 medium supplemented with 10% fetal bovine serum (FBS) and 1% penicillin-streptomycin (PS) (37°C and 5% CO2). The THP1-HIBiT-IRAK4 cells were inoculated in a 384-well plate at 5000 cells/40 µL/well. Compound solutions with different concentrations were added at 40 nL/well and incubated for 24 h at 37°C in 5% CO2. HiBiT lysis detection reagents were added to the wells, the plate was incubated for 30 min at room temperature, and luminescence values were read on Envision. [formula]
The DC50 (half-maximal degradation concentration) of each compound was obtained using XLfit software and the following nonlinear fitting equation: Y = bottom + (top−bottom)/(1+10^(∧)((LogDC50−X)×Hillslope)). [formula]
X denotes a log value of the compound concentration.
Y denotes the degradation rate.
Table 1 lists the results of DC50 values of IRAK4 protein degradation. […]
(The HiBiT peptide binds its large partner to form an active luciferase.)
Take `CC(C)(O)c1cc2nc(C3CCN(CC4CCN(c5ccc6c(c5)CN(C5CCC(=O)NC5=O)C6=O)CC4)CC3)cn2cc1NC(=O)c1cccc(C(F)(F)F)n1` (centres unmarked) [Example 7, N-(2-(1-((1-(2-(2,6-dioxopiperidin-3-yl)-1-oxoisoindolin-5-yl)piperidin-4-yl)methyl)piperidin-4-yl)-7-(2-hydroxypropan-2-yl)imidazo[1,2-a]pyridin-6-yl)-6-(trifluoromethyl)pyridine-2-carboxamide]: half-maximal degradation (DC50) was put at 1.36 nM. Consider `COc1cc2nc(C3CCN(CC4CCN(c5ccc6c(c5)C(=O)N(C5CCC(=O)NC5=O)C6=O)CC4)CC3)cn2cc1NC(=O)c1cccc(C(F)(F)F)n1` (centres unmarked) [Example 8, N-(2-(1-((1-(2-(2,6-dioxopiperidin-3-yl)-1,3-dioxoisoindolin-5-yl)piperidin-4-yl)methyl)piperidin-4-yl)-7-methoxyimidazo[1,2-a]pyridin-6-yl)-6-(trifluoromethyl)pyridine-2-carboxamide], for which the 50% degradation concentration (DC50) worked out at 16.3 nM. In the case of `CC(C)(O)c1cc2nc(C3CCN(CCN4CCN(c5ccc6c(c5)C(=O)N(C5CCC(=O)NC5=O)C6=O)CC4)CC3)cn2cc1NC(=O)c1cccc(C(F)(F)F)n1` (centres unmarked) [Example 9, N-(2-(1-(2-(4-(2-(2,6-dioxopiperidin-3-yl)-1,3-dioxoisoindolin-5-yl)piperazin-1-yl)ethyl)piperidin-4-yl)-7-(2-hydroxypropan-2-yl)imidazo[1,2-a]pyridin-6-yl)-6-(trifluoromethyl)pyridine-2-carboxamide], it took 0.87 nM to reach half-maximal degradation (DC50).

`CC(C)(O)c1cc2nc(C3CCN(CCN4CCN(c5ccc6c(c5)CN(C5CCC(=O)NC5=O)C6=O)CC4)CC3)cn2cc1NC(=O)c1cccc(C(F)(F)F)n1` (centres unmarked) [Example 10, N-(2-(1-(2-(4-(2-(2,6-dioxopiperidin-3-yl)-1-oxoisoindolin-5-yl)piperazin-1-yl)ethyl)piperidin-4-yl)-7-(2-hydroxypropan-2-yl)imidazo[1,2-a]pyridin-6-yl)-6-(trifluoromethyl)pyridine-2-carboxamide] had a 50% degradation concentration (DC50) of 0.51 nM. `COc1cc2nc(C3CCN(CCN4CCN(c5ccc6c(c5)C(=O)N(C5CCC(=O)NC5=O)C6=O)CC4)CC3)cn2cc1NC(=O)c1cccc(C(F)(F)F)n1` (centres unmarked) [Example 11, N-(2-(1-(2-(4-(2-(2,6-dioxopiperidin-3-yl)-1,3-dioxoisoindolin-5-yl)piperazin-1-yl)ethyl)piperidin-4-yl)-7-methoxyimidazo[1,2-a]pyridin-6-yl)-6-(trifluoromethyl)pyridine-2-carboxamide]: half-maximal degradation (DC50) was put at 2.23 nM. Turning to `COc1cc2nc(C3CCN(CCN4CCN(c5ccc6c(c5)CN(C5CCC(=O)NC5=O)C6=O)CC4)CC3)cn2cc1NC(=O)c1cccc(C(F)(F)F)n1` (centres unmarked) [Example 12, N-(2-(1-(2-(4-(2-(2,6-dioxopiperidin-3-yl)-1-oxoisoindolin-5-yl)piperazin-1-yl)ethyl)piperidin-4-yl)-7-methoxyimidazo[1,2-a]pyridin-6-yl)-6-(trifluoromethyl)pyridine-2-carboxamide], the DC50 is 1.05 nM. `CC(C)(O)c1cc2nc(C3CCN(CCN4CCN(c5ccc6c(c5)C(=O)N(C5CCC(=O)NC5=O)C6)CC4)CC3)cn2cc1NC(=O)c1cccc(C(F)(F)F)n1` (centres unmarked) [Example 13, N-(2-(1-(2-(4-(2-(2,6-dioxopiperidin-3-yl)-3-oxoisoindolin-5-yl)piperazin-1-yl)ethyl)piperidin-4-yl)-7-(2-hydroxypropan-2-yl)imidazo[1,2-a]pyridin-6-yl)-6-(trifluoromethyl)pyridine-2-carboxamide]: the 50% degradation concentration (DC50) was 0.64 nM. The result for `COc1cc2nc(C3CCN(CCN4CCN(c5ccc6c(c5)C(=O)N(C5CCC(=O)NC5=O)C6)CC4)CC3)cn2cc1NC(=O)c1cccc(C(F)(F)F)n1` (centres unmarked) [Example 14, N-(2-(1-(2-(4-(2-(2,6-dioxopiperidin-3-yl)-3-oxoisoindolin-5-yl)piperazin-1-yl)ethyl)piperidin-4-yl)-7-methoxyimidazo[1,2-a]pyridin-6-yl)-6-(trifluoromethyl)pyridine-2-carboxamide] reads 1.33 nM; that for `CC(C)(O)c1cc2nc(C3CCN(CCN4CCC5(CC4)CN(c4ccc6c(c4)C(=O)N(C4CCC(=O)NC4=O)C6=O)C5)CC3)cn2cc1NC(=O)c1cccc(C(F)(F)F)n1` (centres unmarked) [Example 16, N-(2-(1-(2-(2-(2-(2,6-dioxopiperidin-3-yl)-1,3-dioxoisoindolin-5-yl)-2,7-diazaspiro[3.5]nonan-7-yl)ethyl)piperidin-4-yl)-7-(2-hydroxypropan-2-yl)imidazo[1,2-a]pyridin-6-yl)-6-(trifluoromethyl)pyridine-2-carboxamide], 3.33 nM; that for `CC(C)(O)c1cc2nc(C3CCN(CCN4CC5(CCN(c6ccc7c(c6)C(=O)N(C6CCC(=O)NC6=O)C7=O)CC5)C4)CC3)cn2cc1NC(=O)c1cccc(C(F)(F)F)n1` (centres unmarked) [Example 17, N-(2-(1-(2-(7-(2-(2,6-dioxopiperidin-3-yl)-1,3-dioxoisoindolin-5-yl)-2,7-diazaspiro[3.5]nonan-2-yl)ethyl)piperidin-4-yl)-7-(2-hydroxypropan-2-yl)imidazo[1,2-a]pyridin-6-yl)-6-(trifluoromethyl)pyridine-2-carboxamide], 4.86 nM.

`CC(C)(O)c1cc2nc(C3CCN(CCC4CCN(c5ccc6c(c5)C(=O)N(C5CCC(=O)NC5=O)C6=O)CC4)CC3)cn2cc1NC(=O)c1cccc(C(F)(F)F)n1` (centres unmarked) [Example 18, N-(2-(1-(2-(1-(2-(2,6-dioxopiperidin-3-yl)-1,3-dioxoisoindolin-5-yl)piperidin-4-yl)ethyl)piperidin-4-yl)-7-(2-hydroxypropan-2-yl)imidazo[1,2-a]pyridin-6-yl)-6-(trifluoromethyl)pyridine-2-carboxamide] came in with a 50% degradation concentration (DC50) of 4.29 nM. The value for `CC(C)(O)c1cc2nc(C3CCN(CCCN4CCN(c5ccc6c(c5)C(=O)N(C5CCC(=O)NC5=O)C6=O)CC4)CC3)cn2cc1NC(=O)c1cccc(C(F)(F)F)n1` (centres unmarked) [Example 19, N-(2-(1-(3-(4-(2-(2,6-dioxopiperidin-3-yl)-1,3-dioxoisoindolin-5-yl)piperazin-1-yl)propyl)piperidin-4-yl)-7-(2-hydroxypropan-2-yl)imidazo[1,2-a]pyridin-6-yl)-6-(trifluoromethyl)pyridine-2-carboxamide] was 1.95 nM.

`CC(C)(O)c1cc2nc(C3CCN(C4CN(C5CCN(c6ccc7c(c6)C(=O)N(C6CCC(=O)NC6=O)C7=O)CC5)C4)CC3)cn2cc1NC(=O)c1cccc(C(F)(F)F)n1` (centres unmarked) [Example 20, N-(2-(1-(1-(1-(2-(2,6-dioxopiperidin-3-yl)-1,3-dioxoisoindolin-5-yl)piperidin-4-yl)azetidin-3-yl)piperidin-4-yl)-7-(2-hydroxypropan-2-yl)imidazo[1,2-a]pyridin-6-yl)-6-(trifluoromethyl)pyridine-2-carboxamide] registered a DC50 of 1.35 nM. For the compound `CC(C)(O)c1cc2nc(C3CCN(CCN4CC5(C4)CN(c4ccc6c(c4)C(=O)N(C4CCC(=O)NC4=O)C6=O)C5)CC3)cn2cc1NC(=O)c1cccc(C(F)(F)F)n1` (centres unmarked) [Example 21, N-(2-(1-(2-(6-(2-(2,6-dioxopiperidin-3-yl)-1,3-dioxoisoindolin-5-yl)-2,6-diazaspiro[3.3]heptan-2-yl)ethyl)piperidin-4-yl)-7-(2-hydroxypropan-2-yl)imidazo[1,2-a]pyridin-6-yl)-6-(trifluoromethyl)pyridine-2-carboxamide], it took 2.3 nM to reach half-maximal degradation (DC50).

Source of the values: patent EP4748840A1, “IMIDAZO[1,2-A]PYRIDINE TYPE IRAK DEGRADATION AGENT AND USE THEREOF” (TAINUORUI (TIANJIN) BIOTECHNOLOGY CO., LTD, priority 2023, dated 2025).
